From paper PMC2965028 (Biochemistry, 2010)

How the values were obtained:
[1] = target: HIV-1 synaptic complex (SC) (Human immunodeficiency virus type 1 group M subtype B, UniProt P12497); assay: Trapping of SC and H-SC on native agarose gels; assay type: biochemical; conditions: wt IN 20 nM, U5 DNA 0.5 nM, 2 h at 37°C, native agarose gel
[2] = target: N155H IN (Human immunodeficiency virus type 1 group M subtype B, UniProt P12497, N1302H); assay type: biochemical, HIV-1; conditions: IC50 N155H vs IC50 wt IN
[3] = test system: N155H IN-DNA complex; conditions: cited from earlier work
[4] = test system: wt IN-DNA complex; conditions: cited from earlier work
[5] = test system: HIV-1; conditions: in 50% normal human serum; cited from earlier work
[6] = target: Q148H IN (Human immunodeficiency virus type 1 group M subtype B, UniProt P12497, Q1295H); assay type: biochemical, HIV-1; conditions: IC50 Q148H vs IC50 wt IN
[7] = target: wt HIV-1 IN (Human immunodeficiency virus type 1 group M subtype B, UniProt P12497); conditions: read-out: IC50, inhibition with two blunt-ended DNA molecules in SC; cited from earlier work

| SMILES | Inhibitor concentration at which trapped SC and H-SC were first detected [1] [nM] | Dissociation half-life from N155H IN-DNA complex [3] [h] | Dissociation half-life from wt IN-DNA complex [4] [h] | other results |
| --- | --- | --- | --- | --- |
| O=C(O)C(=O)/C=C(\O)c1ccc2c(c1)c(=O)c(/C(O)=C/C(=O)C(=O)O)cn2Cc1ccc(F)cc1 [RDS 1997] | ≥ 50 | – | – | – |
| O=C(O)C(=O)C=C(O)c1cn(Cc2ccc(F)cc2)c2cc(N3CCCC3)ccc2c1=O [RDS 2197] | ≥ 250 | – | – | Fold change in IC50 for FS products, N155H IN relative to wt IN (resistance) [2]: 1.3 fold |
| Cc1nnc(C(=O)NC(C)(C)c2nc(C(=O)NCc3ccc(F)cc3)c(O)c(=O)n2C)o1 [RAL, raltegravir] | – | ~0.7 | 7.3 | – |
| CCN1C[C@H](C)n2c(c(O)c3c(=O)n(Cc4ccc(F)c(Cl)c4)nc(C(=O)NC)c32)C1=O [MK-2048] | ≥ 10 | ~4 | ~32 | Antiviral activity IC95 [5]: 41 nM; Fold change in IC50 for FS products, Q148H IN relative to wt IN (resistance) [6]: 2 fold |
| O=C(NCc1ccc(F)cc1)c1nc(N2CCCCS2(=O)=O)c2cccnc2c1O [L-870,810] | – | – | – | IC50 [7]: ~32 nM |
